Source: patent US11202807B2, “Bacterial species” (WAGENINGEN UNIVERSITEIT, priority 2016, dated 2021)
In brackets after ≈: the same amount, converted by molar mass. Like-named read-outs stand apart in the source and are kept apart here.

System: strain Pyt^T
Test: Antibiotic resistance by the Etest method (MIC)
Type: cell-based, Akkermansia glycaniphilus
Conditions: for Level of resistance / sensitivity of strain Pyt^T to the antibiotic: EUCAST breakpoint table for Gram-negative anaerobes (Version 5.0); for MIC: read-out: Minimal Inhibitory Concentration (MIC)
Experimental: Antibiotic resistance was determined using the Etest method for both ampicillin and vancomycin (bioMérieux, Marcy l'Étoile, France). The minimal inhibitory concentration (MIC) was determined after 48 hours of incubation. In more detail, strain Pyt^T was grown in mucin media and after reaching stationary phase 100 ul was plated onto BHI plates supplemented with 0.5% (v/v) hog gastric mucin (Type III, Sigma), and 0.05% (w/v) of cysteine-HCL (Sigma-ALdrich). Plates were incubated for 24-48 hours under strictly anaerobic conditions. The level of resistance was determined using the European Committee on Antimicrobial Susceptibility Testing (EUCAST) breakpoint table for interpretation of MICs for Gram-negative anaerobes (Version 5.0, valid from 2015-01-01).

Cc1ncc([N+](=O)[O-])n1CCO [metronidazole]
Level of resistance / sensitivity of strain Pyt^T to the antibiotic (Etest): sensitive

O=C(N[C@H](CO)[C@H](O)c1ccc([N+](=O)[O-])cc1)C(Cl)Cl [chloramphenicol]
Level of resistance / sensitivity of strain Pyt^T to the antibiotic (Etest): sensitive

CN[C@H](CC(C)C)C(=O)N[C@H]1C(=O)N[C@@H](CC(N)=O)C(=O)N[C@H]2C(=O)N[C@H]3C(=O)N[C@H](C(=O)N[C@H](C(=O)O)c4cc(O)cc(O)c4-c4cc3ccc4O)[C@H](O)c3ccc(c(Cl)c3)Oc3cc2cc(c3O[C@@H]2O[C@H](CO)[C@@H](O)[C@H](O)[C@H]2O[C@H]2C[C@](C)(N)[C@H](O)[C@H](C)O2)Oc2ccc(cc2Cl)[C@H]1O [vancomycin]
MIC (48 h): 24 µg/mL (≈ 16.6 µM)
Level of resistance / sensitivity of strain Pyt^T to the antibiotic (Etest): relatively resistant

CC1(C)S[C@@H]2[C@H](NC(=O)[C@H](N)c3ccccc3)C(=O)N2[C@H]1C(=O)O [ampicillin]
MIC (Etest, BHI plates with 0.5% hog gastric mucin and 0.05% cysteine-HCl, strictly anaerobic, read after 48 hours): 32 µg/mL (≈ 91.6 µM)
Level of resistance / sensitivity of strain Pyt^T to the antibiotic (Etest): relatively resistant

cholistin
Level of resistance / sensitivity of strain Pyt^T to the antibiotic (Etest): sensitive
